This is an account of results in US4596802A, “Thiadiazole derivatives active on the central nervous system and pharmaceutical compositions” (Sanofi, priority 1984, dated 1986).

Series [1] has as its system ptosis induced by reserpine. The series can be described thus: Antagonism of the ptosis induced by reserpine. Format: in vivo, female CD1 mice. The conditions noted are these: Mus musculus, ip; mice, intraperitoneal; reserpine 2 mg/kg i.v. simultaneously; read at 1 hour; read-out: ED50 (dose which completely blocks the ptosis induced by reserpine in 50% of the animals). How it is done:
This test, described by GOURET et al. (Journal de Pharmacologie, Paris, 8, 333-350, 1977), was performed on female CD1 mice (Charles River) weighing 20±1 g. Reserpine causes ptosis 1 hour after intravenous administration; the majority of antidepressants oppose this ptosis. The following protocol was chosen. The substances to be studied were administered intraperitoneally and the reserpine was simultaneously administered intravenously at a dose of 2 mg/kg. […] This test was performed on groups of 10 mice; the results are expressed as ED50 (50% effective dose), i.e. the dose which completely blocks the ptosis induced by reserpine in 50% of the animals.

A short description of series [2]: Acute toxicity, mortality within 24 hours, intraperitoneal. The conditions noted are these: mouse, in vivo, ip, mice, dose of 300 mg/kg. How it is done: The products to be studied were administered intraperitoneally in increasing doses to groups of 10 mice (CD1, Charles River; 20±1 g).
From the results obtained, the 50% lethal dose, i.e. the dose causing the death of 50% of the animals, was determined for each of the products studied.

For series [3], the system named is trembling induced by L-5-HTP. Put plainly: Potentiation of the trembling induced by L-5-HTP. It is filed as in vivo, female CD1 mice. The conditions noted are these: Mus musculus, ip; mice, intraperitoneal, 1 hour before L-5-HTP 200 mg/kg i.p.; observed 20 minutes; read-out: ED50 (dose which induces trembling in 50% of the animals treated). The text has this: Its injection into mice causes a behavioral syndrome characterized in particular by violent trembling. Antidepressants which inhibit the recapture of serotonin or monoamine oxidase inhibitors (MAOI) potentiate this effect of […], 1959). The protocol described by […] (Biochem. Pharmacol., 2, 290-298, 1959) was used. […] The results are expressed as ED50, i.e. the dose which induces trembling in 50% of the animals treated.

For series [4], the system named is dopaminergic receptors. Put plainly: Rotation behavior, unilateral striatal lesion by 6-hydroxydopamine. It is filed as in vivo, female CD1 mice. The following applies: Mus musculus, ip; mice, intraperitoneal, 1 hour after administration, rotations over 2 minutes; read-out: MED (minimum dose necessary to cause a significant reduction in the number of ipsilateral rotations). How it is done: This test is the one described by PROTAIS et al. (Journal de Pharmacologie,Paris, 7, 251-255, 1976). Female mice (Charles River, CD1) weighing from 25 to 30 g were subjected beforehand to a unilateral lesion of the striatum by the stereotaxic injection of 6-hydroxydopamine at a rate of 8 μg per animal. One week after this operation, the products were administered intraperitoneally to groups of 7 mice. 1 hour after administration of the product, the number of rotations was evaluated for 2 minutes. The rotations on the same side as the lesion were counted as positive and those on the opposite side as negative. The algebraic sum of the rotations for one group of treated animals was compared with that of the group of control animals which had only received the vehicle (aqueous solution of gum). In this test, stimulants of the dopaminergic receptors (apomorphine type) reduce the spontaneous rotations whereas indirect dopaminomimetic agents (amphetamine type) increase them. The results are expressed as MED (minimum effective dose), i.e. the minimum dose necessary to cause a significant reduction (Student's t-test) in the number of ipsilateral rotations spontaneously observed in the control animals.

In the case of `CN(C)CCNc1nnc(-c2ccccc2)s1` [Compound A, reference compound], in series [1], the ED50 (in general, the dose that gives a 50% effect, or the effect in half of the subjects) came to 32 mg/kg. In addition, the mortality (as a rule, the share of the test organisms that died) at 24 h in series [2] was 70%.
As for `CCN(CC)CCNc1nnc(-c2ccccc2)s1` [Compound B, reference compound], the ED50 in series [1] was found to be 43 mg/kg. For the same molecule, the mortality at 24 h in series [2] is 90%.
As to `C1CCC(c2nnc(NCCN3CCOCC3)s2)C1` [SR 43057 A], the ED50 in series [1] amounted to 23 mg/kg.
Consider `C1CCC(c2nnc(NCCN3CCOCC3)s2)CC1` [SR 43058, 2-(2-Morpholinoethylamino)-5-cyclohexyl-1,3,4-thiadiazole], for which the ED50 in series [1] was 22 mg/kg; in series [3], 17 mg/kg.
Consider `COc1ccc(-c2nnc(NCCN3CCOCC3)s2)cc1` [SR 43198, 2-(2-morpholinoethylamino)-5-(4-methoxyphenyl)-1,3,4-thiadiazole], for which, in series [3], the ED50 turned out to be 7 mg/kg.
Regarding `Cl.Cl.Oc1ccc(-c2nnc(NCCN3CCOCC3)s2)cc1` [SR 43202 A, 2-(2-Morpholinoethylamino)-5-(4-hydroxyphenyl)-1,3,4-thiadiazole dihydrochloride], the minimal effective dose in series [4] was 0.1 mg/kg.
`c1ccc(-c2ccc(-c3nnc(NCCN4CCOCC4)s3)cc2)cc1` [SR 43294]: in series [4], the minimal effective dose amounted to 0.1 mg/kg.
As to `COc1ccc(-c2nnc(NCCN3CCOCC3)s2)cc1OC` [SR 43295, 2-(2-morpholinoethylamino)-5-(3,4-dimethoxyphenyl)-1,3,4-thiadiazole], in series [4], the minimal effective dose worked out at 0.1 mg/kg.
As to `Cl.Cl.Oc1ccc(-c2nnc(NCCN3CCOCC3)s2)cc1O` [SR 43296 A, 2-(2-Morpholinoethylamino)-5-(3,4-dihydroxyphenyl)-1,3,4-thiadiazole dihydrochloride], in series [4], the minimal effective dose amounted to 0.1 mg/kg.
With `O=[N+]([O-])c1ccc(-c2nnc(NCCN3CCOCC3)s2)cc1` [SR 43530], the ED50 in series [3] is 6.2 mg/kg. The minimal effective dose in series [4] was 0.1 mg/kg.
With `FC(F)(F)c1cccc(-c2nnc(NCCN3CCOCC3)s2)c1` [SR 43531 A], the ED50 in series [3] was 7.8 mg/kg.
As to `FC(F)(F)c1ccc(-c2nnc(NCCN3CCOCC3)s2)cc1` [SR 43604], the minimal effective dose in series [4] was found to be 0.1 mg/kg.
As for `Cl.Cl.c1ccc(-c2nnc(NCCN3CCOCC3)s2)cc1` [SR 95311 A, 2-(2-Morpholinoethylamino)-5-phenyl-1,3,4-thiadiazole dihydrochloride], the 50% effective dose (ED50) in series [1] turned out to be 4.6 mg/kg; in series [3] it was 6 mg/kg. Moreover, the minimal effective dose in series [4] is 0.1 mg/kg.
Consider `Clc1ccc(-c2nnc(NCCN3CCOCC3)s2)cc1` [SR 95340 A], for which the ED50 came out at 8.8 mg/kg in series [1] and 3.6 mg/kg in series [3].
As for `Clc1cccc(-c2nnc(NCCN3CCOCC3)s2)c1` [SR 95396 A], the ED50 in series [1] came to 11.3 mg/kg. Moreover, the minimal effective dose in series [4] came out at 0.1 mg/kg.
As to `Clc1ccccc1-c1nnc(NCCN2CCOCC2)s1` [SR 95397 A], the results for the ED50 in series [1] and in series [3] were 18 mg/kg and 14.5 mg/kg, respectively. For the same molecule, the minimal effective dose in series [4] was determined as 0.1 mg/kg.
As to `c1ccc2c(-c3nnc(NCCN4CCOCC4)s3)cccc2c1` [SR 95559 A], the minimal effective dose in series [4] amounted to 0.1 mg/kg.
